Reference: paper PMC10937238 (Saudi Pharmaceutical Journal : SPJ, 2024)

What was measured:
MERS-CoV PLpro [1] = target: T1, MERS-CoV PLpro (Human betacoronavirus 2c EMC/2012, UniProt K0BWD0); test: biochemical
MERS-CoV PLpro [2] = target: T1, MERS-CoV PLpro; test: biochemical; type: binding; conditions: read-out: SA (111.5 μM)
MERS-CoV PLpro [3] = target: T1, MERS-CoV PLpro; type: binding

Structure (SMILES) | IC50 (MERS-CoV PLpro [1]) | ΔTm at 111.5 µM (MERS-CoV PLpro [2]) | Indomethacin (279.5 μM) (MERS-CoV PLpro [3])
COc1cc(/C=C/C(=O)O)cc(OC)c1O [sinapic acid] | 68.6 µM | 18.4 °C | –
COc1ccc2c(c1)c(CC(=O)O)c(C)n2C(=O)c1ccc(Cl)cc1 [Indomethacin] | – | – | 1.44 °C
